Laboratory results published in patent publication US6054459A, “Substituted 1,2,3,4-tetrahydro-5-nitro-pyrimidines” (priority 1994, dated 2000).
Where two headings read alike, the source gives them in different places.

How the values were obtained:
[1] = test system: Myzus persicae; assay: Myzus test; type: in vivo, Myzus persicae (green peach aphid); conditions: 144 h, read-out: Degree of destruction in % after 6d
Method: (§1) Solvent: 7 parts by weight of dimethylformamide
(§2) Emulsifier: 1 part by weight of alkylaryl polyglycol ether
(§3) To produce a suitable preparation of active compound, 1 part by weight of active compound is mixed with the stated amount of solvent and the stated amount of emulsifier, and the concentrate is diluted with water to the desired concentration.
Cabbage leaves (Brassica oleracea) which are severely infested with the green peach aphid (Myzus persicae) are treated by being dipped into the preparation of active compound of the desired concentration.
After the desired period of time, the destruction in % is determined. 100% means that all the aphids have been killed; 0% means that none of the aphids have been killed.

[2] = physchem
[3] = test system: Lucilia cuprina res. larvae; assay: Test with resistant Lucilia cuprina larvae; type: in vivo; conditions: for mortality at 100 ppm: Lucilia cuprina, read-out: effectiveness (degree of destruction)
Method: Test with resistant Lucilia cuprina larvae
Emulsifier: 35 parts by weight of ethylene glycol monomethyl ether 35 parts by weight of nonylphenol polyglycol ether
To produce a suitable preparation of active compound, three parts by weight of active compound are mixed with seven parts by weight of the abovementioned mixture and the concentrate thus obtained is diluted with water to the particular desired concentration.
About 20 Lucilia cuprina res. larvae are introduced into a test tube which contains approx. 1 cm^3 of horse meat and 0.5 ml of the preparation of active compound. After 24 hours, the degree of destruction is determined.

[4] = test system: Ctenocephalides felis; assay: In-vitro flea test (all stages of development); type: in vivo; conditions: no adult fleas after 11/2 times the development time
Method: In-vitro flea test (all stages of development)
Test object: All stages (eggs, larvae, pupae and adults) of Ctenocephalides felis.
Test method: Bloodmeal is dried overnight in a shallow dish at approximately 70° C. and subsequently screened using a mesh size of 0.63 mm.
1.8 g portions of the bloodmeal which has been prepared in this manner are placed into plastic Petri dishes .o slashed. 9.8 cm.
Using an Eppendorf pipette, 0.2 ml of the substance are added to the 1.8 g portions of bloodmeal (dilution 1:10). This means that for a use concentration of 1 ppm, the aqueous solution must have a concentration of 10 ppm. The solution is applied dropwise and uniformly over the entire area covered by the bloodmeal.
The dishes which have been prepared in this manner are allowed to dry overnight. Using a suitable device, the substance, now in the form of dried lumps of bloodmeal, is broken up and distributed homogeneously in the Petri dish by swirling. To the test dishes which have been prepared in this manner there is now added a spatula--tipful of flea eggs which have been obtained by screening (and which are derived from experimentally infected cats). The dish is sealed using Parafilm and shaken vigorously.
The test materials are incubated at 25° C. and a relative humidity of 85%. At certain intervals, the dishes are examined for stages of development of the fleas.
Test criterion: The criterion for the in-vitro activity of a substance is defined as the inhibition of flea development, or a standstill during the development before reaching the adult stage.
Effective: No adult fleas found after 11/2 times the development time.
Ineffective: Adult fleas found after 11/2 times the development time.

[5] = test system: Nephotettix cincticeps; assay: Nephotettix test; type: in vivo, Nephotettix cincticeps (green rice leafhopper); conditions: 144 h, after 6d, read-out: Degree of destruction in % after 6d; for mortality at 1e-05 %: active compound concentration 0.00001 %; for mortality at 0.0001 %: active compound concentration 0.0001 %; for mortality at 0.001 %: active compound concentration 0.001 %
Method: as §1, §2, §3
Rice seedlings (Oryza sativa) are treated by being dipped into the preparation of active compound of the desired concentration and are infested with larvae of the green rice leafhopper (Nephotettix cincticeps) while the seedlings are still moist.
After the desired period of time, the destruction in % is determined. 100% means that all the leafhoppers have been killed; 0% means that none of the leafhoppers have been killed.

[6] = test system: Aphis fabae; assay: Critical concentration test/root-systemic action; type: in vivo; conditions: 48 h, 20 ppm in soil, infested after 7 days, evaluated after a further 2 days, read-out: Degree of destruction in % at active compound concentrations in ppm (root-systemic action)
Method: Critical concentration test/root-systemic action
Solvent: 4 parts by weight of acetone
as §2
To produce a suitable preparation of active compound, 1 part by weight of active compound is mixed with the stated amount of solvent, the stated amount of emulsifier is added and the concentrate is diluted with water to the desired concentration.
The preparation of active compound is intimately mixed with soil. The concentration of the active compound in the preparation is of practically no importance, only the amount by weight of active compound per unit volume of soil, which is given in ppm (=mg/1), being decisive. The treated soil is transferred into pots and these are planted with pregerminated broad beans. The active compound can in this way be taken up from the soil by the roots of the plants and be transported into the leaves.
After a further 2 days, the evaluation is made by counting or estimating the dead animals. The root-systemic action of the active compound is deduced from the mortality figures. It is 100% if all test animals have been killed and 0% if just as many test insects are still alive as in the case of the untreated control.

[7] = test system: Musca domestics, strain WHO(N); assay: Fly test; type: in vivo; conditions: 6 h, read-out: activity (flies destroyed)
Method: Test animals: Musca domestics, strain WHO(N)
Solvent: 35 parts by weight of ethylene glycol mono-methyl ether
35 parts by weight of nonylphenol polyglycol ether
To produce a suitable formulation, three parts by weight of active compound are mixed with seven parts of the abovementioned solvent-emulsifier mixture and the emulsion concentrate thus obtained is diluted with water to the particular desired concentration.
2 ml of this preparation of active compound are pipetted onto paper filter discs (.o slashed. 9.5 cm) located in Petri dishes of a suitable size. After the discs have dried, 25 test animals are transferred into the Petri dishes and covered.
After 6 hours, the activity of the preparation of active compound is determined. The activity is expressed in %. 100% means that all flies have been destroyed; 0% means that no flies have been destroyed.

[8] = active compound concentration 0.001 %, after 6d
[9] = active compound concentration 0.01 %, after 6d

SMILES: O=C(NCCCCCCCl)OCCCN1CC([N+](=O)[O-])=C2N(Cc3ccc(Cl)nc3)CCN2C1 [drawing 143]
- mortality at 0.001 % [1, 8]: 100%
- mortality at 0.01 % [1, 9]: 100%

SMILES: O=[N+]([O-])C1=C2N(Cc3ccc(Cl)nc3)CCN2CN(CCCCCO)C1 [II-13]
- logP [2]: 0.97

SMILES: CCOC(=O)NCCN1CC([N+](=O)[O-])=C2N(Cc3ccc(Cl)nc3)CCN2C1 [Example 3, 6,7-dihydro-6-(2-ethoxy-carbonylamino-ethyl)-8-nitro-(5H)-3-(2-chloropyridin-5-yl-methyl)-imidazolidino-[2,3-f] -pyrimidine]
- activity compared with the prior art ([3]; 24 hours): superior activity compared with the prior art
- mortality at 100 ppm ([3]; 24 h): 100%
- inhibition at 10 ppm [4]: 100%

SMILES: O=[N+]([O-])C1=C2N(Cc3ccc(Cl)nc3)CCCN2CN(CCOCC(F)(F)F)C1 [drawing 134, reference compound]
- mortality at 1e-05 % [5]: 0%
- mortality at 0.0001 % [5]: 60%
- mortality at 0.001 % [5]: 100%

SMILES: O=[N+]([O-])C1=C2N(Cc3ccc(Cl)nc3)CCN2CN(CCCCCCO)C1 [II-14]
- logP [2]: 0.74

SMILES: CNC(=O)OCCCN1CC([N+](=O)[O-])=C2N(Cc3ccc(Cl)nc3)CCN2C1 [drawing 135]
- mortality at 1e-05 % [5]: 100%
- mortality at 0.0001 % [5]: 100%
- mortality at 0.001 % [5]: 100%

SMILES: CC(C)(C)OC(=O)NCCN1CC([N+](=O)[O-])=C2N(Cc3ccc(Cl)nc3)CCN2C1 [drawing 138]
- mortality at 0.001 % [1]: 100%
- mortality at 0.01 % [1]: 100%

SMILES: CC(C)(C)C(=O)NCCN1CC([N+](=O)[O-])=C2N(Cc3ccc(Cl)nc3)CCN2C1
- mortality at 20 ppm [6]: 100%

SMILES: CCOC(=O)NCCN1CC([N+](=O)[O-])=C2N(Cc3ccc(Cl)nc3)CCN2C1 [drawing 139]
- mortality at 0.001 % [1]: 95%
- mortality at 0.01 % [1]: 100%

SMILES: O=[N+]([O-])C1=C2N(Cc3ccc(Cl)nc3)CCCN2CN(CCOCC(F)(F)F)C1 [drawing 137, reference compound]
- mortality at 0.001 % [1]: 0%
- mortality at 0.01 % [1]: 80%

SMILES: O=[N+]([O-])C1=C2N(Cc3cnc(Cl)s3)CCN2CN(CCCCO)C1 [II-17]
- logP [2]: 0.58

SMILES: CC(=O)NCCN1CC([N+](=O)[O-])=C2N(Cc3ccc(Cl)nc3)CCN2C1 [drawing 140]
- mortality at 0.001 % [1]: 100%
- mortality at 0.01 % [1]: 100%

SMILES: CCOC(=O)NCCCN1CC([N+](=O)[O-])=C2N(Cc3ccc(Cl)nc3)CCN2C1 [drawing 141]
- mortality at 0.001 % [1]: 99%
- mortality at 0.01 % [1]: 100%

SMILES: CC(=O)OCCCN1CC([N+](=O)[O-])=C2N(Cc3ccc(Cl)nc3)CCN2C1 [drawing 136]
- mortality at 1e-05 % [5]: 100%
- mortality at 0.0001 % [5]: 100%
- mortality at 0.001 % [5]: 100%

SMILES: CC(C)(C)OC(=O)NCCN1CC([N+](=O)[O-])=C2N(Cc3ccc(Cl)nc3)CCN2C1 [Example 16]
- activity compared with the prior art ([3]; 24 hours): superior activity compared with the prior art
- mortality at 100 ppm ([3]; 24 h): 100%
- inhibition at 10 ppm [4]: 100%
- mortality at 1000 ppm [7]: 100%

SMILES: CCCCNC(=O)OCCCN1CC([N+](=O)[O-])=C2N(Cc3ccc(Cl)nc3)CCN2C1
- mortality at 0.001 % [1, 8]: 98%
- mortality at 0.01 % [1, 9]: 100%

SMILES: CC(C)NC(=O)OCCN1CC([N+](=O)[O-])=C2N(Cc3ccc(Cl)nc3)CCN2C1 [Example 14]
- activity compared with the prior art ([3]; 24 hours): superior activity compared with the prior art
- mortality at 100 ppm ([3]; 24 h): 100%

SMILES: O=C(NCCN1CC([N+](=O)[O-])=C2N(Cc3ccc(Cl)nc3)CCN2C1)OCc1ccccc1 [Example 18]
- activity compared with the prior art ([3]; 24 hours): superior activity compared with the prior art
- mortality at 100 ppm ([3]; 100 ppm, 24 hours): 100%
- inhibition at 10 ppm [4]: 100%
